Test results reported in BigSolDB 2.1.

O=C(O)c1cc(O)c(O)c(O)c1
solubility (mole fraction)
Conditions | 293.15 K | 298.15 K | 303.15 K | 308.15 K | 313.15 K | 318.15 K
in methanol | 0.0639 | 0.0672 | 0.07 | 0.0721 | 0.0755 | 0.0768
in water | 0.00101 | 0.00135 | 0.00171 | 0.00227 | 0.00289 | 0.0038
